How the values were obtained:
[1] = system: Jurkat HIV-luciferase clones; assay: Jurkat latency reversal assay; type: cell-based; details: Homo sapiens, 48 h; Jurkat latency reversal assay potency; read-out: Jurkat pEC50 (converted)
How it was run: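 EC50 and maximal activation versus vehicle were derived by four-parameter logistic regression of luciferase luminescence. The luminescence was induced in pooled Jurkat HIV-luciferase clones C16, 115 and N6 (5,000 cells/well) after 48 h at 37° C with duplicate 14-point, 3-fold dilutions starting at 10 μM (0.5% DMSO).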

cIAP1-BIR3 = cIAP1-BIR3 (Homo sapiens (Human), UniProt Q13490); assay: BIR binding assay (FRET competition), cIAP1 BIR3; details: for cIAP1 BIR3 vs BIR2 separation window: fold separation (FS) for cIAP1
cIAP1-BIR3, sequence (Q13490 253-363): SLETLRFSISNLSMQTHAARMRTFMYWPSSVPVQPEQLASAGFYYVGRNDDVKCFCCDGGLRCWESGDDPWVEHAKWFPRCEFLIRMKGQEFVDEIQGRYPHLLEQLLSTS
How it was run: (§1)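 Each domain is run separately at its own level: 50 nM cIAP1-BIR3, 100 nM XIAP-BIR3, 325 nM for cIAP1-BIR2 or cIAP2-BIR2. Probe is a 200 nM fluorescent SMAC peptide, and the value is IC50 from FRET competition.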

cIAP1-BIR2 = cIAP1-BIR2 (Homo sapiens (Human), UniProt Q13490); assay: BIR binding assay (FRET competition), cIAP1 BIR2
cIAP1-BIR2, sequence (Q13490 173-257): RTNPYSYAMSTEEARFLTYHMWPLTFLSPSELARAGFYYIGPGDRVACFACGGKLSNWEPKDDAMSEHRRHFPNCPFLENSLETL
How it was run: as §1

cIAP2-BIR3 = cIAP2-BIR3 (Homo sapiens (Human), UniProt Q13489); assay: BIR binding assay (FRET competition), cIAP2 BIR3; details: for cIAP2 BIR3 vs BIR2 separation window: fold separation (FS) for cIAP2
cIAP2-BIR3, sequence (Q13489 238-349): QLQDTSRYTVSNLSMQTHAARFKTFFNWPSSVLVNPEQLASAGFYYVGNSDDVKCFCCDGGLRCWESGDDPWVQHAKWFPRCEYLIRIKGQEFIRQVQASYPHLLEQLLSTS

cIAP2-BIR2 = cIAP2-BIR2 (Homo sapiens (Human), UniProt Q13489); assay: BIR binding assay (FRET competition), cIAP2 BIR2
cIAP2-BIR2, sequence (Q13489 158-242): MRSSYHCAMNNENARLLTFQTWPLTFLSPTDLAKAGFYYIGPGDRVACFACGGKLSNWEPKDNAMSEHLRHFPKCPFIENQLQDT
Method: The BIR domain binding assays are FRET based competition assays that utilize His-tagged versions of each of the BIR2 and BIR3 domains from cIAP1, cIAP2, and XIAP (each domain assayed separately) each at a custom optimal concentration and a probe, 200 nM SMAC/DIABLO peptide […] labelled with AlexaFluor647 (part #crb 1110326h, Discovery Peptides). The assay is conducted in 50 mM HEPES, […], 1 mM CHAPS, 5% Glycerol, 1 mM DTT, in dI water with a final pH of 7.4 and final volume of 20 uL. Final protein domain concentrations are: 50 nM cIAP1-BIR3 (Part #APT-11-370 Reaction Biology), 100 nM XIAP-BIR3 (Part #APT-11-351 Reaction Biology), 200 nM XIAP-BIR2 (Part #APT-11-470 Reaction Biology), 325 nM cIAP2-BIR2 (Part #APT-11-489 Reaction Biology), 50 nM cIAP2-BIR3 (Part #APT-11-372 Reaction Biology), 325 nM cIAP1-BIR2 (Part #APT-11-487 Reaction Biology). Compounds were plated using a HP Tecan D300 printer in a final total volume of 202 nl and DMSO concentration normalized across the 15-point, 3-fold dilution series. Peptide and probe were prepared at 2× relative to the concentrations above in binding buffer, 10 uL added to the prepared compound plates, and incubated for 60 minutes. LANCE Eu-W1024 (part #AD0401 Perkin Elmer #, vendor) was prepared at 2× concentration in binding buffer for final concentration of 2 nM, 10 uL added to each well, and plates incubated for 30 minutes. Plates were read on an ENVISION multifunction plate reader with […] laser excitation to obtain the 615 nm/665 nm emission ratio as indicative of probe:protein proximity. Data was analyzed using GraphPad PRISM and curves fit using log(inhibitor) vs. response—Variable slope (four […] method to obtain IC50 and pIC50 values.

XIAP-BIR3 = XIAP-BIR3 (Homo sapiens (Human), UniProt P98170); assay: BIR binding assay (FRET competition), XIAP BIR3
XIAP-BIR3, sequence (P98170 241-356): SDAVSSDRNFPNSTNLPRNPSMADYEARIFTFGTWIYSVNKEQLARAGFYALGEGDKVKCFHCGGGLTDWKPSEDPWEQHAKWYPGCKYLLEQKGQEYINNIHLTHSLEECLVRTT
How it was run: as §1

SMILES: C[C@@H]1CN(CC(=O)N2CC(C)(C)c3[nH]c(=O)c(Cc4ccc(F)cc4)cc32)[C@@H](CN2CCO[C@H](COc3ccc(Cl)c(OC[C@@H]4CN(C[C@H]5CN[C@H](C)CN5CC(=O)N5CC(C)(C)c6[nH]c(=O)c(Cc7ccc(F)cc7)cc65)CCO4)c3)C2)CN1 [Example 89, 1,1′-(2,2′-((3R,3′R,6R,6′R)-(((2S,2'S)-(((4-chloro-1,3-phenylene)bis(oxy))bis(methylene))bis(morpholine-2,4-diyl))bis(methylene))bis(3-methylpiperazine-6,1-diyl))bis(acetyl))bis(6-(4-fluorobenzyl)-3,3-dimethyl-1,2,3,4-tetrahydro-5H-pyrrolo[3,2-b]pyridin-5-one)]
- EC50 [1]: 0.49 to 12.6 nM
- IC50 (cIAP1-BIR3): 15.8 to 31.6 nM
- cIAP1 BIR3 vs BIR2 separation window (cIAP1-BIR3): +++ (10,000>FS>1,000)
- IC50 (cIAP1-BIR2): 3160 to 10000 nM
- IC50 (cIAP2-BIR3): 7.94 to 15.8 nM
- cIAP2 BIR3 vs BIR2 separation window (cIAP2-BIR3): +++ (10,000>FS>1,000)
- IC50 (cIAP2-BIR2): 1000 to 3160 nM
- IC50 (XIAP-BIR3): 15.8 to 31.6 nM

SMILES: C[C@@H]1CN(CC(=O)N2CC(C)(C)c3[nH]c(=O)c(Cc4ccc(Cl)cc4O)cc32)[C@@H](CN2CCO[C@H](C(=O)NCc3ccc(CNC(=O)[C@@H]4CN(C[C@H]5CN[C@H](C)CN5CC(=O)N5CC(C)(C)c6[nH]c(=O)c(Cc7ccc(Cl)cc7O)cc65)CCO4)cc3)C2)CN1 [Compound 164, (2S,2′S)-N,N′-(1,4-phenylenebis(methylene)) bis(4-(((2R,5R)-1-(2-(6-(4-chloro-2-hydroxybenzyl)-3,3-dimethyl-5-oxo-2,3,4,5-tetrahydro-1H-pyrrolo[3,2-b]pyridin-1-yl)-2-oxoethyl)-5-methylpiperazin-2-yl)methyl)morpholine-2-carboxamide)]
- EC50 [1]: 63.1 to 316 nM
- IC50 (cIAP1-BIR3): 1.38 to 7.94 nM
- cIAP1 BIR3 vs BIR2 separation window (cIAP1-BIR3): ++ (1,000>FS>100)
- IC50 (cIAP1-BIR2): 22.4 to 1000 nM
- IC50 (cIAP2-BIR3): 1.38 to 7.94 nM
- cIAP2 BIR3 vs BIR2 separation window (cIAP2-BIR3): ++ (1,000>FS>100)
- IC50 (cIAP2-BIR2): 22.4 to 1000 nM
- IC50 (XIAP-BIR3): 7.94 to 15.8 nM

SMILES: C[C@@H]1CN(CC(=O)N2CC(C)(C)c3[nH]c(=O)c(Cc4c(Cl)cc(Cl)cc4Cl)cc32)[C@@H](CN2CCO[C@H](C(=O)NCc3ccc(CNC(=O)[C@@H]4CN(C[C@H]5CN[C@H](C)CN5CC(=O)N5CC(C)(C)c6[nH]c(=O)c(Cc7c(Cl)cc(Cl)cc7Cl)cc65)CCO4)cc3)C2)CN1 [Compound 180, (2S,2′S)-N,N′-(1,4-phenylenebis(methylene)) bis(4-(((2R,5R)-1-(2-(3,3-dimethyl-5-oxo-6-(2,4,6-trichlorobenzyl)-2,3,4,5-tetrahydro-1H-pyrrolo[3,2-b]pyridin-1-yl)-2-oxoethyl)-5-methylpiperazin-2-yl)methyl)morpholine-2-carboxamide)]
- EC50 [1]: 63.1 to 316 nM
- IC50 (cIAP1-BIR3): 31.6 to 501 nM
- cIAP1 BIR3 vs BIR2 separation window (cIAP1-BIR3): ++ (1,000>FS>100)
- IC50 (cIAP1-BIR2): 10000 to 51300 nM
- IC50 (cIAP2-BIR3): 31.6 to 501 nM
- cIAP2 BIR3 vs BIR2 separation window (cIAP2-BIR3): ++ (1,000>FS>100)
- IC50 (cIAP2-BIR2): 10000 to 51300 nM
- IC50 (XIAP-BIR3): 31.6 to 501 nM

SMILES: C[C@@H]1CN(CC(=O)N2CC(C)(C)c3[nH]c(=O)c(Cc4ccc(F)cc4)cc32)[C@@H](CN2CCO[C@H](COc3cc(C#N)cc(OC[C@@H]4CN(C[C@H]5CN[C@H](C)CN5CC(=O)N5CC(C)(C)c6[nH]c(=O)c(Cc7ccc(F)cc7)cc65)CCO4)c3)C2)CN1 [Example 76, 3,5-bis(((S)-4-(((2R,5R)-1-(2-(6-(4-fluorobenzyl)-3,3-dimethyl-5-oxo-2,3,4,5-tetrahydro-1H-pyrrolo[3,2-b]pyridin-1-yl)-2-oxoethyl)-5-methylpiperazin-2-yl)methyl)morpholin-2-yl)methoxy)benzonitrile]
- EC50 [1]: 0.49 to 12.6 nM
- IC50 (cIAP1-BIR3): 7.94 to 15.8 nM
- cIAP1 BIR3 vs BIR2 separation window (cIAP1-BIR3): +++ (10,000>FS>1,000)
- IC50 (cIAP1-BIR2): 3160 to 10000 nM
- IC50 (cIAP2-BIR3): 1.38 to 7.94 nM
- cIAP2 BIR3 vs BIR2 separation window (cIAP2-BIR3): +++ (10,000>FS>1,000)
- IC50 (cIAP2-BIR2): 1000 to 3160 nM
- IC50 (XIAP-BIR3): 15.8 to 31.6 nM

SMILES: C[C@@H]1CN(CC(=O)N2CC(C)(C)c3[nH]c(=O)c(Cc4ccc(F)cc4)cc32)[C@@H](CN2CCO[C@H](COc3cc(F)cc(OC[C@@H]4CN(C[C@H]5CN[C@H](C)CN5CC(=O)N5CC(C)(C)c6[nH]c(=O)c(Cc7ccc(F)cc7)cc65)CCO4)c3)C2)CN1 [Example 73, 1,1′-(2,2′-((3R,3′R,6R,6′R)-(((2S,2'S)-(((5-fluoro-1,3-phenylene)bis(oxy))bis(methylene))bis(morpholine-2,4-diyl))bis(methylene))bis(3-methylpiperazine-6,1-diyl))bis(acetyl))bis(6-(4-fluorobenzyl)-3,3-dimethyl-1,2,3,4-tetrahydro-5H-pyrrolo[3,2-b]pyridin-5-one)]
- EC50 [1]: 0.49 to 12.6 nM
- IC50 (cIAP1-BIR3): 7.94 to 15.8 nM
- cIAP1 BIR3 vs BIR2 separation window (cIAP1-BIR3): +++ (10,000>FS>1,000)
- IC50 (cIAP1-BIR2): 3160 to 10000 nM
- IC50 (cIAP2-BIR3): 1.38 to 7.94 nM
- cIAP2 BIR3 vs BIR2 separation window (cIAP2-BIR3): +++ (10,000>FS>1,000)
- IC50 (cIAP2-BIR2): 3160 to 10000 nM
- IC50 (XIAP-BIR3): 15.8 to 31.6 nM

SMILES: C[C@@H]1CN(CC(=O)N2CC(C)(C)c3[nH]c(=O)c(Cc4ccc(F)cc4)cc32)[C@@H](CN2CCO[C@H](C(=O)NCCCCCCCCNC(=O)[C@@H]3CN(C[C@H]4CN[C@H](C)CN4CC(=O)N4CC(C)(C)c5[nH]c(=O)c(Cc6ccc(F)cc6)cc54)CCO3)C2)CN1 [Example 119, (2S,2'S)-N,N′-(octane-1,8-diyl)bis(4-(((2R,5R)-1-(2-(6-(4-fluorobenzyl)-3,3-dimethyl-5-oxo-2,3,4,5-tetrahydro-1H-pyrrolo[3,2-b]pyridin-1-yl)-2-oxoethyl)-5-methylpiperazin-2-yl)methyl)morpholine-2-carboxamide)]
- EC50 [1]: 12.6 to 63.1 nM
- IC50 (cIAP1-BIR3): 1.38 to 7.94 nM
- cIAP1 BIR3 vs BIR2 separation window (cIAP1-BIR3): +++ (10,000>FS>1,000)
- IC50 (cIAP1-BIR2): 1000 to 3160 nM
- IC50 (cIAP2-BIR3): 1.38 to 7.94 nM
- cIAP2 BIR3 vs BIR2 separation window (cIAP2-BIR3): +++ (10,000>FS>1,000)
- IC50 (cIAP2-BIR2): 22.4 to 1000 nM
- IC50 (XIAP-BIR3): 7.94 to 15.8 nM

SMILES: C[C@@H]1CN(CC(=O)N2CC(C)(C)c3[nH]c(=O)c(Cc4ccc(F)cc4)cc32)[C@@H](CN2CCN(C(=O)/C=C/c3ccc(/C=C/C(=O)N4CCN(C[C@H]5CN[C@H](C)CN5CC(=O)N5CC(C)(C)c6[nH]c(=O)c(Cc7ccc(F)cc7)cc65)[C@H](C)C4)cc3)C[C@H]2C)CN1 [Example 14, 1,1′-(2,2′-((3R,3′R,6R,6′R)-(((2R,2′R)-((2E,2′E)-3,3′-(1,4-phenylene)bis(acryloyl))bis(2-methylpiperazine-4,1-diyl))bis(methylene))bis(3-methylpiperazine-6,1-diyl))bis(acetyl))bis(6-(4-fluorobenzyl)-3,3-dimethyl-1,2,3,4-tetrahydro-5H-pyrrolo[3,2-b]pyridin-5-one)]
- EC50 [1]: 63.1 to 316 nM
- IC50 (cIAP1-BIR3): 15.8 to 31.6 nM
- cIAP1 BIR3 vs BIR2 separation window (cIAP1-BIR3): ++ (1,000>FS>100)
- IC50 (cIAP1-BIR2): 22.4 to 1000 nM
- IC50 (cIAP2-BIR3): 15.8 to 31.6 nM
- cIAP2 BIR3 vs BIR2 separation window (cIAP2-BIR3): ++ (1,000>FS>100)
- IC50 (cIAP2-BIR2): 22.4 to 1000 nM
- IC50 (XIAP-BIR3): 15.8 to 31.6 nM

SMILES: COc1cc(F)ccc1Cc1cnc2c(c1)N(C(=O)CN1C[C@@H](C)NC[C@@H]1CN1CCO[C@H](COc3cccc(OC[C@@H]4CN(C[C@H]5CN[C@H](C)CN5CC(=O)N5CC(C)(C)c6ncc(Cc7ccc(F)cc7OC)cc65)CCO4)c3)C1)CC2(C)C [Compound 151]
- EC50 [1]: 63.1 to 316 nM
- IC50 (cIAP1-BIR3): 15.8 to 31.6 nM
- cIAP1 BIR3 vs BIR2 separation window (cIAP1-BIR3): +++ (10,000>FS>1,000)
- IC50 (cIAP1-BIR2): 3160 to 10000 nM
- IC50 (cIAP2-BIR3): 7.94 to 15.8 nM
- cIAP2 BIR3 vs BIR2 separation window (cIAP2-BIR3): +++ (10,000>FS>1,000)
- IC50 (cIAP2-BIR2): 3160 to 10000 nM
- IC50 (XIAP-BIR3): 31.6 to 501 nM

Source: patent publication US20250326771A1, “PIPERAZINE DERIVATIVES USEFUL IN HIV THERAPY” (VIIV HEALTHCARE COMPANY, priority 2022, published 2025)
